Patent US20230158152A1, “PROTEOLYSIS REGULATOR AND METHOD FOR USING SAME” (MEDSHINE DISCOVERY INC., priority 2020, published 2023)

How the values were obtained:
[1] = tested on: human lung cancer cell NCI-H2228; test: Anti-proliferative effect in human lung cancer cell NCI-H2228 (CellTiter-Glo); type: cell-based; conditions: NCI-H2228, 72 h, cell proliferation, cultured for 3 days
Experimental: In this assay, the inhibitory effect of assay compounds on cell proliferation was assayed in human lung cancer cell NCI-H2228.
(1) Promega CellTiter-Glo luminescent cell viability assay kit (Promega-G7573). (2) 2104 EnVision® plate reader, PerkinElmer.
The tumor cell line was cultured in a 37° C., 5% CO2 incubator according to the above-mentioned culture conditions. Cells were passaged periodically, and cells in logarithmic growth phase were used for plating.
(1). Cells were stained with trypan blue and viable cells were counted; (2). The cell concentration was adjusted to an appropriate concentration;
(3). 90 μL of cell suspension was added to each well of the culture plate as shown in the table above, and cell-free culture medium was added to the blank control well; (4). The plate was incubated in an incubator at 37° C., 5% CO2, and 100% relative humidity overnight.
Preparation of a mother solution storage plate with 400 times the starting compound concentration: the compounds were diluted serially with DMSO from the highest concentration to the lowest concentration. The plate was prepared freshly every time it was used.
(1). 78 μL of cell culture medium was added to a 96-well plate with a V-shaped bottom. […]
(1). […] The culture plate was left at room temperature for 10 minutes to stabilize the luminescence signal; (9). The luminescent signal was detected on a 2104 EnVision plate reader. […]

[2] = tested on: human lung cancer NCI-H2228 cells subcutaneous xenograft tumor; test: In vivo pharmacodynamic study in subcutaneous xenograft tumor NOD SCID mouse model of human lung cancer NCI-H2228 cells; set-up: species or system NOD SCID mice; conditions: 50 mg/kg subcutaneous injection once a day
Experimental: Human lung cancer cell NCI-H2228 (ATCC® CRL-5935™) was cultured in vitro in an adherent monolayer in RPMI 1640 medium supplemented with 10% fetal bovine serum, 100 U/mL penicillin and 100 μg/mL streptomycin in an incubator at 37° C. and 5% CO2. Cells were passaged by routine digestion with trypsin-EDTA twice a week. When the cell saturation was 80%-90% and the number met the requirement, the cells are collected, counted, and inoculated.
NOD SCID mice, female, 6-8 weeks old, weighing 18-22 grams.
0.2 mL (10×10^6 cells) of NCI-H2228 cells (with matrigel, v/v 1:1) were subcutaneously inoculated into the right back of each mouse. The administration by group was started when the average tumor volume reached 171 mm^3. One administration cycle comprised seven days, with administration once a day. The assay compounds were administered by subcutaneous injection for a total of four cycles. The subcutaneous injection doses of the assay compounds WX001 and WX002 were both 50 mg/kg. Tumor diameter was measured twice a week with a vernier caliper, and tumor volume was measured in cubic millimeters and calculated by the following formula: V=0.5a×b^2, where a and b are the long and short diameters of the tumor, respectively. The tumor-inhibitory efficacy of the assay compounds was evaluated by using TGI (%). TGI (%) reflects a tumor growth inhibition rate. TGI (%)=[1−(Average tumor volume at the end of administration of a treatment group−Average tumor volume at the beginning of administration of the treatment group)/(Average tumor volume at the end of treatment of a vehicle control group−Average tumor volume at the beginning of treatment of the vehicle control group)]×100%.

[3] = target: T1, Recombinant human-derived ALK (Homo sapiens, UniProt Q9UM73); test: Inhibitory activity of compounds against ALK kinase (time-resolved fluorescence resonance energy transfer); type: biochemical; conditions: 30 μM ATP, 50 nM ULight-poly GT peptide
T1 construct: BAG10812.1; 1058-1620 (terminal) amino acids; GST (N); made in house
T1 sequence (Q9UM73 1058-1620): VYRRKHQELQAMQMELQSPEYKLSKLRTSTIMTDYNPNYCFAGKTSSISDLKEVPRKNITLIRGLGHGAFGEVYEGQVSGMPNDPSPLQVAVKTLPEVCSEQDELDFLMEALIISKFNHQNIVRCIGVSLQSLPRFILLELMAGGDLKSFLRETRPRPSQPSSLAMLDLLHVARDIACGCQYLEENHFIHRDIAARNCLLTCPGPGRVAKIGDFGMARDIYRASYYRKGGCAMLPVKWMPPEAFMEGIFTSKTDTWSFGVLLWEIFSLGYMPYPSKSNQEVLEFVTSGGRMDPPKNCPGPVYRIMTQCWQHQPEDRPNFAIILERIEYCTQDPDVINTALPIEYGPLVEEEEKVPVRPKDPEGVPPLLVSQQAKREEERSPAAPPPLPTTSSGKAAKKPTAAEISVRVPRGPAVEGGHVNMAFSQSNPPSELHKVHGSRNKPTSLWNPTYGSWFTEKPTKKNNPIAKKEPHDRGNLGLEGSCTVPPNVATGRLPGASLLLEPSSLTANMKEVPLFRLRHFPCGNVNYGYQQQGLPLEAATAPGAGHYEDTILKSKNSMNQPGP
Experimental: The inhibitory activity of the compounds on ALK kinase was detected by time-resolved fluorescence resonance energy transfer method, that is, the ratio of fluorescence signals at 665 nm/615 nm was used to represent the activity of the enzyme.
Assay buffer solution: 50 mM 2-[4-(2-hydroxyethyl)-1-piperazinyl]ethanesulfonic acid buffer solution (HEPES) (pH 7.5), 10 mM MgCl2, 1 mM EDTA 0.01%, polyoxyethylene lauryl ether (Brij 35), 2 mM dithiothreitol (DTT).
Enzyme: Recombinant human-derived ALK (gene accession number: BAG10812.1; 1058-1620 (terminal) amino acids) was expressed with a N-terminal GST fusion protein (90 kDa) using a baculovirus expression system.
Enzyme substrate: 50 nM ULight-poly GT polypeptide.
Detection: europium-labeled anti-phosphotyrosine (PT66) antibody.
1. Compounds dissolved in 100% DMSO were added to 384-well plates by acoustic technique; 2. Recombinant human-derived ALK enzyme and enzyme substrate (50 nM ULight-poly GT peptide) or zymolyte (30 μM ATP) were dissolved in freshly prepared assay buffer; 3. The above ALK enzyme and enzyme substrate in the buffer solution were transferred to reaction wells; 4. Then, the zymolyte in the buffer solution was added to the above reaction wells to initiate the reaction; 5. The plate was incubated at room temperature for 1 hour; 6. The detection mixture (PT66 antibody and EDTA) was added to terminate the reaction, and the mixture was incubated at room temperature for 60 minutes; 7. Then, the plate was read using a microplate reader to obtain the ratio of fluorescence signals at 665 nm/615 nm.
Data analysis: Emission ratio (665 nm/615 nm) in the original data was involved in the calculation of the inhibition rate. The concentration and inhibition rate were analyzed using XLfit software 205 mode (4 Parameters Logistic Model) to obtain IC50 value and curve.

IC50 [1]: 91 nM
IC50 [3]: 21.8 nM
SMILES: Cc1cc(Nc2ncc(Cl)c(Nc3ccccc3S(=O)(=O)C(C)C)n2)c(OC(C)C)cc1C1CCN(CC(=O)NCCOc2ccc3occ(C4CCC(=O)NC4=O)c3c2)CC1 (centres unmarked) [WX001]
Tumor volume (Day 1) ([2]; Day 1): 172 ± 12 mm^3
TGI (Day 28) ([2]; Day 28): 111.22%
Tumor volume (Day 28) ([2]; Day 28): 102 ± 5 mm^3
